ChEMBL document CHEMBL1201862, “PubChem BioAssay data set” (2004)
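Interpolation was linear, between the two tested concentrations surrounding the appropriate level; five concentrations were tested over 48 hours in 96-well plates. Abbreviation: GI50, concentration required for 50% inhibition of growth.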 Calls of active or inactive are those of the source. Rule as the data show it: active = GI50 up to about 1.1 µM and inactive = higher.

Legend:
Test in all cases: inhibition of tumour cell growth, NCI panel, 48 h
OVCAR-8 = tested on: OVCAR-8
HL-60 = tested on: HL-60
HCT-15 = tested on: HCT-15
T47D = tested on: T47D
M14 = tested on: M14
NCI-H23 = tested on: NCI-H23
SN12C = tested on: SN12C
SK-MEL-5 = tested on: SK-MEL-5
U-251 = tested on: U-251
OVCAR-3 = tested on: OVCAR-3
TK-10 = tested on: TK-10
Hs-578T = tested on: Hs-578T
ACHN = tested on: ACHN
CAKI-1 = tested on: CAKI-1
A498 = tested on: A498
BT-549 = tested on: BT-549
SF-295 = tested on: SF-295
EKVX = tested on: EKVX
Malme-3M = tested on: Malme-3M
CCRF-CEM = tested on: CCRF-CEM
UACC-257 = tested on: UACC-257
SW-620 = tested on: SW-620
SNB-75 = tested on: SNB-75
RXF 393 = tested on: RXF 393
UACC-62 = tested on: UACC-62
NCI-H460 = tested on: NCI-H460
SF-539 = tested on: SF-539
SK-MEL-2 = tested on: SK-MEL-2
MDA-MB-435 = tested on: MDA-MB-435
COLO 205 = tested on: COLO 205
MDA-MB-231 = tested on: MDA-MB-231
HT-29 = tested on: HT-29
RPMI-8226 = tested on: RPMI-8226
KM12 = tested on: KM12
MDA-N = tested on: MDA-N
SK-OV-3 = tested on: SK-OV-3
HCT-116 = tested on: HCT-116
DU-145 = tested on: DU-145
IGROV-1 = tested on: IGROV-1
786-0 = tested on: 786-0
PC-3 = tested on: PC-3
SF-268 = tested on: SF-268
NCI-H226 = tested on: NCI-H226
LOX IMVI = tested on: LOX IMVI
OVCAR-5 = tested on: OVCAR-5
K562 = tested on: K562
MCF7 = tested on: MCF7
MOLT-4 = tested on: MOLT-4
UO-31 = tested on: UO-31
SNB-19 = tested on: SNB-19
NCI/ADR-RES = tested on: NCI/ADR-RES
SK-MEL-28 = tested on: SK-MEL-28

`COc1ccc(C2OC(N)=C(C#N)C3=C2CCCC3C)cc1OC` (configuration not stated) was tested, and the GI50 (OVCAR-8) was > 100 µM (inactive), the GI50 (HL-60) was > 100 µM (inactive) and the GI50 (HCT-15) was greater than 100 µM. For the same molecule, the GI50 (T47D) was > 100 µM (inactive), the GI50 (M14) was > 100 µM (inactive) and the GI50 (NCI-H23) was > 100 µM (inactive). The GI50 (SN12C) was > 100 µM (inactive), the GI50 (SK-MEL-5) was > 100 µM (inactive) and the GI50 (U-251) was > 100 µM (inactive). The GI50 (OVCAR-3) was > 100 µM (inactive), the GI50 (TK-10) was > 100 µM (inactive) and the GI50 (Hs-578T) was > 100 µM (inactive). For the same molecule, the GI50 (ACHN) was > 100 µM (inactive), the GI50 (CAKI-1) was > 100 µM (inactive) and the GI50 (A498) was > 100 µM (inactive). The GI50 (BT-549) was > 100 µM (inactive), the GI50 (SF-295) was > 100 µM (inactive) and the GI50 (EKVX) was > 100 µM (inactive). For the same molecule, the GI50 (Malme-3M) was > 100 µM (inactive), the GI50 (CCRF-CEM) was > 100 µM (inactive) and the GI50 (UACC-257) was > 100 µM (inactive). The GI50 (SW-620) was > 100 µM (inactive), the GI50 (SNB-75) was 23.8 µM (inactive) and the GI50 (RXF 393) was > 100 µM (inactive). For the same molecule, the GI50 (UACC-62) was > 100 µM (inactive), the GI50 (NCI-H460) was > 100 µM (inactive) and the GI50 (SF-539) was > 100 µM (inactive). The GI50 (SK-MEL-2) was > 100 µM (inactive), the GI50 (MDA-MB-435) was > 100 µM (inactive) and the GI50 (COLO 205) was > 100 µM (inactive). The GI50 (MDA-MB-231) was > 100 µM (inactive), the GI50 (HT-29) was > 100 µM (inactive) and the GI50 (RPMI-8226) was > 100 µM (inactive). For the same molecule, the GI50 (KM12) was > 100 µM (inactive), the GI50 (MDA-N) was > 100 µM (inactive) and the GI50 (SK-OV-3) was > 100 µM (inactive). For the same molecule, the GI50 (HCT-116) was > 100 µM (inactive), the GI50 (DU-145) was > 100 µM (inactive) and the GI50 (IGROV-1) was > 100 µM (inactive). The GI50 (786-0) was > 100 µM (inactive), the GI50 (PC-3) was > 100 µM (inactive) and the GI50 (SF-268) was > 100 µM (inactive). For the same molecule, the GI50 (NCI-H226) was > 100 µM (inactive), the GI50 (LOX IMVI) was > 100 µM (inactive) and the GI50 (OVCAR-5) was > 100 µM (inactive). The GI50 (K562) was > 100 µM (inactive), the GI50 (MCF7) was > 100 µM (inactive) and the GI50 (MOLT-4) was > 100 µM (inactive). The GI50 (UO-31) was > 100 µM (inactive), the GI50 (SNB-19) was > 100 µM (inactive) and the GI50 (NCI/ADR-RES) was > 100 µM (inactive). For the same molecule, the GI50 (SK-MEL-28) was > 100 µM (inactive).
